Measured values: article PMC12362783 (Advanced Science, 2025)

How the values were obtained:
ATM = ATM (Homo sapiens, UniProt Q13315); experiment: PIKK family kinase selectivity; type: biochemical
[1] = test system: MDA‐MB‐468 xenograft tumors; experiment: Immunohistochemistry staining of xenograft tumors; type: in vivo, mice
Procedure: The isolated tumor tissue was fixed in 4% paraformaldehyde for 24 h, dehydrated, embedded, and sliced. After deparaffinization, Ki67 (GB121141‐50, Servicebio), γH2AX (GB111841‐50, Servicebio), CD8 (GB15068‐50, Servicebio), or Cleaved‐caspase‐3 antibody (CST#9661) were incubated at 4 °C overnight, rinsed three times with PBS, and incubated with the secondary antibody. A DAB substrate solution was applied to the slide sections to reveal the antibody staining color. The tissue slide was dehydrated four times with alcohol. The tissue slides were then cleared three times in xylene and mounted with a mounting solution. The mounted slides could be stored at room temperature indefinitely. The immunohistochemical images were obtained under the microscope (Nikon DS‐Ri1).

MDA‐MB‐468 cells [2] = experiment: Immunofluorescence of γH2AX foci; type: cell-based; details: 48 h, vs Olaparib, AZD6738, and their combination
Procedure: (§1) Cells were fixed for 30 min in 4% paraformaldehyde and permeabilized for 30 min in 1% Triton X‐100 at 4 °C. After three rinses with PBS, cells were blocked for 30 min with 5% BSA and incubated with γH2AX antibody (1/1000 dilution, CST#9718) in 5% BSA overnight at 4 °C, after which they were rinsed three times with PBS and incubated with the secondary antibodies at room temperature for 1 h. Then, cells were washed with PBS three times, and the nucleus was stained with DAPI and fixed. Finally, images were visualized with the microscope and analyzed.

MDA‐MB‐231 cells [3] = experiment: Immunofluorescence of γH2AX foci; type: cell-based; details: 48 h, vs Olaparib, AZD6738, and their combination
Procedure: as §1

MDA‐MB‐231 cells [4] = experiment: Comet assay, DNA damage; type: cell-based; details: 24 h, vs AZD6738, Olaparib, and their combination
[5] = Preliminary safety evaluation in xenografted mice (body weight, animal loss, H&E staining of organs); type: in vivo
Procedure: MDA‐MB‐468 cells (1 × 10^7) were implanted in the right flanks subcutaneously in female nude mice. When the implanted tumor grew to a volume of 110 mm^3, the animals were randomly divided into four groups, each group containing four animals. […] Tumor size and body weights were measured twice a week. On day 28, the mice were euthanized, tumors were harvested and weighed, and vital organs (heart, liver, spleen, lung, and kidney) were collected. Processed samples were saved for further safety evaluation.
The tumor sample and vital organs were immersed in 4% paraformaldehyde for 4 h and transferred to 70% ethanol. Individual lobes of the sample were placed in processing cassettes, dehydrated through a serial alcohol gradient, and embedded in paraffin wax blocks. Thick tissue sections (5 µm) were dewaxed in xylene, rehydrated through decreasing concentrations of ethanol, washed in PBS, and stained with H&E. After staining, the sections were dehydrated through increasing concentrations of ethanol and xylene. Images were acquired on a fluorescent inverted microscope (Nikon DS‐Ri1).

ATR = molecular target: T1, ATR (Homo sapiens, UniProt Q13535); experiment: ATR kinase inhibition, Mobility Shift Assay; type: biochemical; details: n = 3, mean ± SD
T1 construct: purchased Eurofins 14-953
T1 sequence (Q13535 whole entry): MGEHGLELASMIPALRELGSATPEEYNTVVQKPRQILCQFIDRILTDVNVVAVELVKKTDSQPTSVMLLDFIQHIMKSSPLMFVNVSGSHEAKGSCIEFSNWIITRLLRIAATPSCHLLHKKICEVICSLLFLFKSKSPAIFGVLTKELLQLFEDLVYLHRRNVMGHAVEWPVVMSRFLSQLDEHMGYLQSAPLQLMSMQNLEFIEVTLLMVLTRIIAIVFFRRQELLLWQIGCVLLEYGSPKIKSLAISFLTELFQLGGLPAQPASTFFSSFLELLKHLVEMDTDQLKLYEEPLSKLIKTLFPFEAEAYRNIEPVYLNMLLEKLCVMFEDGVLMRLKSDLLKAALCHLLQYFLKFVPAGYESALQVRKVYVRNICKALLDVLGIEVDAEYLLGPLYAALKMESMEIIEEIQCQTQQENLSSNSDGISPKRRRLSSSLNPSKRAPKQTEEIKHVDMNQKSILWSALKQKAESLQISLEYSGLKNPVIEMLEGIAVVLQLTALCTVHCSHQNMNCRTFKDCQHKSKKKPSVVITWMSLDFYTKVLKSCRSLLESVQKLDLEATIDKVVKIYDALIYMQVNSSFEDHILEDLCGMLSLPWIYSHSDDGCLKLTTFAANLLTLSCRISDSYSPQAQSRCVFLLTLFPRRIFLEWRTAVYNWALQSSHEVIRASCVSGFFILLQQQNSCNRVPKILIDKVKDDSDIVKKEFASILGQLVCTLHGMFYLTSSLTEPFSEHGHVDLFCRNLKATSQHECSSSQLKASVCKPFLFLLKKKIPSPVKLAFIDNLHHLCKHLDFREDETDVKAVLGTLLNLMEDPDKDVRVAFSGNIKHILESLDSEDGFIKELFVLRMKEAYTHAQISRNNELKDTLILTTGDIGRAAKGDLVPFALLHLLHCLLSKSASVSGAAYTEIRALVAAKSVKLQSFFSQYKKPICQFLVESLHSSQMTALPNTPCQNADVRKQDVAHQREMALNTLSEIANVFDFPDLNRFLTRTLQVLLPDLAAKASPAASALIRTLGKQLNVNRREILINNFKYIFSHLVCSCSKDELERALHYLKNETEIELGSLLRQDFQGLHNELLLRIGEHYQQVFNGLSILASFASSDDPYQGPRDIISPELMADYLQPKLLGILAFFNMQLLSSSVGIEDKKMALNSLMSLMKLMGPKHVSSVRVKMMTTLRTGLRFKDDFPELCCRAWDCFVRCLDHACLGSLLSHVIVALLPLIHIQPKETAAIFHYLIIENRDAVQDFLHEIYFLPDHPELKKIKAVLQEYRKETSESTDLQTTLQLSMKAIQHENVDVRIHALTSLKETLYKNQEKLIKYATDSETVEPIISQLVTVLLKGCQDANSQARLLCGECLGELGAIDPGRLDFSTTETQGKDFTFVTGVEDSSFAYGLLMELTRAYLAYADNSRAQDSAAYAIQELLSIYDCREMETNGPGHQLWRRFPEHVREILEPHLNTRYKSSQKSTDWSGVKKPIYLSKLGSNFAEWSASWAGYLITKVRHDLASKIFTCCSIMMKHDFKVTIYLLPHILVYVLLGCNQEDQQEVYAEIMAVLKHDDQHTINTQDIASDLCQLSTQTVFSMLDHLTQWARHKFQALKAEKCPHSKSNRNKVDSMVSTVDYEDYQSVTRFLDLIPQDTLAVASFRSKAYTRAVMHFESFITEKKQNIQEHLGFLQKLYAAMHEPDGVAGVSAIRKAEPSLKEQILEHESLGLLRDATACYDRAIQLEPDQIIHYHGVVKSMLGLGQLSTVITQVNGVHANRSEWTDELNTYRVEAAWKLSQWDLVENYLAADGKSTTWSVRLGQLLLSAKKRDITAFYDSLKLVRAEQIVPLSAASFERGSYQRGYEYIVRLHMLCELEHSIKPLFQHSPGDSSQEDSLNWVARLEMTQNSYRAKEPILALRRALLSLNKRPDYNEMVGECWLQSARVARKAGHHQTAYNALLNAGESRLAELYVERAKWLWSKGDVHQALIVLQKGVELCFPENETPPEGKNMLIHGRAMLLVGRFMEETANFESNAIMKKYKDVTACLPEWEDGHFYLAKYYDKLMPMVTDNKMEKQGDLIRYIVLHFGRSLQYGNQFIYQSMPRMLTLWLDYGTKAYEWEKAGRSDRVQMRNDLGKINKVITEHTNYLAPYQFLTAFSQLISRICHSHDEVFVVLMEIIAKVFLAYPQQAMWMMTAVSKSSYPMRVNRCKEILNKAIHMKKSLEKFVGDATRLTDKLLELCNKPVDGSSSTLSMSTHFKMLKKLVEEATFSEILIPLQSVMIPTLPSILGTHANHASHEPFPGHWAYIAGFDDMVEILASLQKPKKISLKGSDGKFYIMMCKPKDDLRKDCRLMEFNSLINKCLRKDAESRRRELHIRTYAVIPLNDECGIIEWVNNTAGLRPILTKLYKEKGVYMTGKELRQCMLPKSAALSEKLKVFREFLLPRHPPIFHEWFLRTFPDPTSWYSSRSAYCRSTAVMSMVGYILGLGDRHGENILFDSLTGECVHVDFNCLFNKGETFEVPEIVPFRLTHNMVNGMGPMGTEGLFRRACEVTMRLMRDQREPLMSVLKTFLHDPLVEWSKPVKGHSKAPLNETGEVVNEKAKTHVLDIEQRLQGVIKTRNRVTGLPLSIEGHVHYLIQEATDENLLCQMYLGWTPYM
T1 sequence (Q8WXE1 whole entry partner): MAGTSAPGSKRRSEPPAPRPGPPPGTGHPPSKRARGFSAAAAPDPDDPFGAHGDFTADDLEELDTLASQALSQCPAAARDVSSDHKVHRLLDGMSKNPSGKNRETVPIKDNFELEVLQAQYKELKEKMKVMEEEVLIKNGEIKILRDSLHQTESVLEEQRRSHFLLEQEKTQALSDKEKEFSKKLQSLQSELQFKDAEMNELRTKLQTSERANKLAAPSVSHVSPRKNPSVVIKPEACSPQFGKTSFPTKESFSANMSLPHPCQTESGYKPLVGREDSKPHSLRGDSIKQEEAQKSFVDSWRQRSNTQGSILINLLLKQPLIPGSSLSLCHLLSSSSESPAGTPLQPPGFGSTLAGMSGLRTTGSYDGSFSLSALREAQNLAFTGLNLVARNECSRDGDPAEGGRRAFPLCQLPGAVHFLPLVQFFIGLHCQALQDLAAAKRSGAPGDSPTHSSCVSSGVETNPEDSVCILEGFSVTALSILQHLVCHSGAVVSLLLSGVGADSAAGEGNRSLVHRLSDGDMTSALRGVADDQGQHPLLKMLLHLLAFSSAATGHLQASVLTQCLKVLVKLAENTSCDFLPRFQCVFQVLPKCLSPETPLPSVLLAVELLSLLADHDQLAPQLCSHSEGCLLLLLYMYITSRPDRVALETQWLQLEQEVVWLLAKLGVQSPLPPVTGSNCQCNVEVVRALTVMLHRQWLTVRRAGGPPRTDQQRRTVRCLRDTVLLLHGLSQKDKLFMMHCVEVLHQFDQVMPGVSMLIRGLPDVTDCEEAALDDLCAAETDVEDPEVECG
Procedure: The in vitro ATR kinase inhibitory activities were determined by ChemPartner Co., Ltd. (Shanghai, China) using the Mobility Shift Assay. The tested compound was dissolved with DMSO and diluted to 1000/3 × of the final desired highest inhibitor concentration in the reaction. […] The assay wells were incubated at 28 °C for 4 h.

MDA‐MB‐468 xenograft = experiment: MDA‐MB‐468 xenografted mice model, antitumor efficacy; type: in vivo; details: 28 days
Procedure: Anticancer efficacy experiment in MDA‐MB‐468 Xenografted mice model was performed by Shanghai Medicilon Inc. All animal experiments in this study were conducted in strict accordance with national animal welfare regulations and were approved by the institutional animal ethics committee (Approval number: IACUC‐HZN2401P; Approval Date: 2024‐10‐18). MDA‐MB‐468 cells (1 × 10^7) were implanted in the right flanks subcutaneously in female nude mice. When the implanted tumor grew to a volume of 110 mm^3, the animals were randomly divided into four groups, each group containing four animals. Compound B8 was intraperitoneally (IP) administered at two different doses, bis in die (BID) for 28 days: low dose: 25 mg k^−1g and high dose 50 mg k^−1g. […] Tumor size and body weights were measured twice a week. On day 28, the mice were euthanized, tumors were harvested and weighed, and vital organs (heart, liver, spleen, lung, and kidney) were collected. Processed samples were saved for further safety evaluation.

MDA‐MB‐468 cells [6] = experiment: Western blotting analysis; type: cell-based; details: 48 h
Procedure: Cells were washed with cold PBS and lysed in RIPA buffer containing protease inhibitors (MCE, HY‐K0010). The lysate was centrifuged (13 000 rpm, 4 °C, 15 min); the protein concentrations were determined by the BCA Assay Kit (Beyotime, p0012s). Proteins were loaded onto 10% SDS‐PAGE gel and then transferred onto polyvinylidene fluoride (Millipore) membranes. The membranes were blocked for 1 h, incubated with primary antibodies overnight at 4 °C, and then washed three times with Tris‐buffered saline with Tween 20 (TBST) for 10 min. After incubating with the secondary HRP antibody for 1 h at room temperature, the membranes were washed three times with TBST for 10 min and then exposed on autoradiograph films using enhanced chemiluminescence. The primary antibodies used were ATR (1/1000 dilution, CST#13 934), PARP1 (1/1000 dilution, CST#9532), BCL‐2 (1/1000 dilution, CST#4223), Bax (1/1000 dilution, CST#5023), Caspase 3 (1/1000 dilution, CT#9662), Cleaved caspase 3 (1/1000 dilution, CST#9661), E‐cadherin (1/1000 dilution, CST#3195), Vimetin (1/1000 dilution, CST#5741), p‐CHK1 (1/1000 dilution, CST#2348), CHK1 (1/1000 dilution, CST#2360), CDK1 (Proteintech#19532‐1‐AP), p‐CDK1 (CST#9114), γH2AX (1/1000 dilution, CST#9718), and β‐Actin (1/1000 dilution, Proteintech# 66009‐1‐Ig).

[7] = compared to the combination group

## C[C@@H]1COCCN1c1cc(CNC(=O)c2ccc(C(=O)N3CCN(C(=O)c4cc(Cc5n[nH]c(=O)c6ccccc56)ccc4F)CC3)cc2)nc(-c2ccnc3[nH]ccc23)n1 [Compound B8, (R)‐4‐(4‐(2‐fluoro‐5‐((4‐oxo‐3,4‐dihydrophthalazin‐1‐yl)methyl)benzoyl)piperazine‐1‐carbonyl)‐N‐((6‐(3‐methylmorpholino)‐2‐(1H‐pyrrolo[2,3‐b]pyridin‐4‐yl)pyrimidin‐4‐yl)methyl) benzamide]
ATM
  IC50: > 5 µM
[1]
  CD8 expression in tumor tissues (IHC): increased the levels of CD8 expression
  Ki67, γH2AX and cleaved‐caspase 3 expression in tumors (IHC): decreased Ki67 expression and increased γH2AX and cleaved‐caspase 3 expression
MDA‐MB‐468 cells [2]
  γH2AX foci formation: significantly increased the formation of γH2AX foci
MDA‐MB‐231 cells [3]
  γH2AX foci formation: significantly increased the formation of γH2AX foci
MDA‐MB‐231 cells [4]
  comet assay tail intensity: markedly increased tail intensity
[5]; B8 25 and 50 mg/kg I.P., 28 days, nude mice
  effect on body weight: no significant effect on body weight
[5]; after 28 days of continuous administration
  H&E staining of heart, liver, spleen, lungs, and kidneys: did not cause significant changes in organ structure or cellular morphology
ATR
  IC50: 17.3 ± 2.5 nM
MDA‐MB‐468 xenograft; B8 50 mg/kg I.P., female nude mice
  tumor growth inhibition rate (TGI): 68.36%
MDA‐MB‐468 xenograft; B8‐treated mice
  tumor weight and volume: significantly lower than control groups
MDA‐MB‐468 cells [6]
  BCL‐2 protein expression (Western blot): significantly decreased the protein expression of BCL‐2
  CDK1 Tyr15 phosphorylation (Western blot): enhanced CDK1 Tyr15 phosphorylation
  CHK1 Ser345 phosphorylation (Western blot): significantly decreased CHK1 Ser345 phosphorylation
MDA‐MB‐468 cells [6]; [7]
  E‐cadherin expression (Western blot): significant increase in the expression of the epithelial cell marker E‐cadherin
  Vimentin expression (Western blot): decrease in the expression of the mesenchymal cell marker Vimentin
MDA‐MB‐468 cells [6]; compared to the combination of AZD6738 and Olaparib
  BAX and cleaved‐caspase‐3 protein expression (Western blot): induced more BAX and cleaved‐caspase‐3 protein expression
MDA‐MB‐468 cells [6]; B8 1.0 and 2.0 µM
  DSB marker γH2AX (Western blot): significantly increased than under the combination treatment
MDA‐MB‐468 cells [6]; B8 1.0 and 2.0 µM, vs Olaparib or AZD6738 alone or in combination
  protein levels of ATR and PARP1 (Western blot): reduction in the protein levels of both ATR and PARP1
